According to patent US20170037028A1 (BAYER PHARMA AKTIENGESELLSCHAFT, priority 2013, published 2017):
Where two headings read alike, the source gives them in different places.

Biological target: T1, GLUT1 (Homo sapiens, UniProt P11166)
T1 sequence (P11166 1-492): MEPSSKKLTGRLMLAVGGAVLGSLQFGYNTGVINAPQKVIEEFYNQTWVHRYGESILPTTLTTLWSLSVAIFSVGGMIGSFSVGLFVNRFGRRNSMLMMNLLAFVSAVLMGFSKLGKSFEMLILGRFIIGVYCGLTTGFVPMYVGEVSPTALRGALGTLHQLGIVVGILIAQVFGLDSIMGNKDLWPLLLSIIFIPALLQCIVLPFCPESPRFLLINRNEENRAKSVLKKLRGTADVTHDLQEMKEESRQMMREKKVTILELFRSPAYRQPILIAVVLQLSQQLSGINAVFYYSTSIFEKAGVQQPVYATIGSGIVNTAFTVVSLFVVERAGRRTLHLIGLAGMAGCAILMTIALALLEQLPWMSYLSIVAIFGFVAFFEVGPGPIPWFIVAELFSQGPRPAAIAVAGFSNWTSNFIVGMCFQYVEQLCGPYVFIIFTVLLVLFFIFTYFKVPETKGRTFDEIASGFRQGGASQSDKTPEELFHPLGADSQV
Assay: Indirect measurement of GLUT1 activity by quantification of intracellular ATP levels (glucose induced ATP increase)
Format: cell-based
Design: endogenous in cells; host or cells: DLD1 or CHO-K1
Details: read-out: IC50 regarding glucose induced ATP increase (GLUT1 inhibition)
Procedure, shortened: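 DLD1 or CHO-K1 cells were starved overnight in glucose-free medium with 1% FCS, then combined with an oxidative phosphorylation inhibitor. GLUT1 activity was read as glucose-induced ATP increase, GLUT2 as fructose-induced. Intracellular ATP was quantified by CellTiter-Glo luminescence.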

SMILES | IC50 | IC50 (DLD1 cells, 0.1 mM glucose, 1 μM Rotenone, 15 min, CellTiter-Glo ATP readout, IC50 values standardized to cytochalasin B IC50 values)
COC(=O)c1coc(Cn2nc(C(F)(F)F)c(NC(=O)c3cc(C(N)=O)nc4ccccc34)c2C)n1 [Example 1680] | 146 nM | –
CCOC(=O)c1cc(Cn2nc(C(F)(F)F)c(NC(=O)c3cc(C(N)=O)nc4cc(F)c(Cl)cc34)c2C)on1 [Example 1683] | 109 nM | –
Cc1c(NC(=O)c2cc(C(N)=O)nc3ccccc23)c(C(F)(F)F)nn1Cc1nc(C(=O)O)co1 [Example 1684] | 721 nM | –
Cc1c(NC(=O)c2cc(C(N)=O)nc3cc(F)c(Cl)cc23)c(C(F)(F)F)nn1Cc1nc(C(=O)O)co1 [Example 1686] | 1290 nM | –
Cc1c(NC(=O)c2cc(C(N)=O)nc3cc(F)ccc23)c(C(F)(F)F)nn1Cc1cccc(C#N)n1 [Example 1687] | 128 nM | –
Cc1c(NC(=O)c2cc(C(N)=O)nc3cccc(F)c23)c(C(F)(F)F)nn1Cc1cccc(C#N)n1 [Example 1688] | 86.8 nM | –
Cc1c(NC(=O)c2cc(C(N)=O)nc3ccccc23)c(C(F)(F)F)nn1Cc1cccc(C#N)n1 [Example 1690] | 353 nM | –
Cc1nn(CC(=O)Nc2cccc(C#N)c2)c(C)c1NC(=O)c1cc(C(N)=O)nc2ccccc12 [Example 1691] | 556 nM | –
Cc1nn(CC(=O)Nc2ccc(F)cc2)c(C)c1NC(=O)c1cc(C(N)=O)nc2ccccc12 [Example 1692] | 208 nM | –
Cc1nn(CC(=O)Nc2cccc(F)c2)c(C)c1NC(=O)c1cc(C(N)=O)nc2ccccc12 [Example 1701] | 165 nM | –
Cc1c(NC(=O)c2cc(C(N)=O)nc3ccccc23)c(C(F)(F)F)nn1Cc1cc(CN2CCOCC2)on1 [Example 1702] | 140 nM | –
Cc1c(NC(=O)c2cc(C(N)=O)nc3cc(F)ccc23)c(C(F)(F)F)nn1Cc1ccccc1OC(F)(F)F [Example 1703] | – | 387 nM
Cc1c(NC(=O)c2cc(C(N)=O)nc3cc(F)c(Cl)cc23)c(C(F)(F)F)nn1Cc1ccccc1OC(F)(F)F [Example 1704] | 110 nM | –
Cc1c(NC(=O)c2cc(C(N)=O)nc3ccccc23)c(C(F)(F)F)nn1Cc1ccccc1OC(F)(F)F [Example 1705] | 172 nM | –
Cc1c(NC(=O)c2cc(C(N)=O)nc3cccc(F)c23)c(C(F)(F)F)nn1Cc1ccccc1OC(F)(F)F [Example 1706] | 616 nM | –
Cc1nn(Cc2cccc(C#N)n2)c(C)c1NC(=O)c1cc(C(N)=O)nc2cc(F)ccc12 [Example 1707] | 124 nM | –
Cc1nn(Cc2cccc(C#N)n2)c(C)c1NC(=O)c1cc(C(N)=O)nc2ccccc12 [Example 1708] | 147 nM | –

Further molecules by falling IC50, results first:

IC50 | SMILES | IC50 (DLD1 cells, 0.1 mM glucose, 1 μM Rotenone, 15 min, CellTiter-Glo ATP readout, IC50 values standardized to cytochalasin B IC50 values)
86.7 nM | COC(=O)c1coc(Cn2nc(C(F)(F)F)c(NC(=O)c3cc(C(N)=O)nc4cc(F)ccc34)c2C)n1 [Example 1681] | –
57.7 nM | Cc1c(NC(=O)c2cc(C(N)=O)nc3cc(F)ccc23)c(C(F)(F)F)nn1Cc1nc2ccccc2o1 [Example 1678] | –
43.6 nM | Cc1nn(CC(=O)N(C)c2ccc(F)cc2)c(C)c1NC(=O)c1cc(C(N)=O)nc2ccccc12 [Example 1693] | –
38.6 nM | Cc1ccc(C#N)c(Cn2nc(C(F)(F)F)c(NC(=O)c3cc(C(N)=O)nc4cc(F)ccc34)c2C)c1 [Example 1700] | –
36.7 nM | COC(=O)c1coc(Cn2nc(C(F)(F)F)c(NC(=O)c3cc(C(N)=O)nc4cc(F)c(Cl)cc34)c2C)n1 [Example 1682] | –
30.9 nM | Cc1c(NC(=O)c2cc(C(N)=O)nc3cc(F)c(Cl)cc23)c(C(F)(F)F)nn1Cc1cccc(C#N)n1 [Example 1689] | –
28.1 nM | Cc1nn(Cc2cccc(C#N)n2)c(C)c1NC(=O)c1cc(C(N)=O)nc2cccc(F)c12 [Example 1709] | –
18.6 nM | Cc1c(NC(=O)c2cc(C(N)=O)nc3ccccc23)c(C(F)(F)F)nn1Cc1ccc(C#N)s1 [Example 1679] | –
11.3 nM | Cc1ccc(C#N)c(Cn2nc(C)c(NC(=O)c3cc(C(N)=O)nc4cc(F)c(Cl)cc34)c2C)c1 [Example 1699] | –
6.5 nM | Cc1cc(F)ccc1Cn1nc(C(F)(F)F)c(NC(=O)c2cc(C(N)=O)nc3cc(F)c(Cl)cc23)c1C [Example 1712] | –
6.4 nM | Cc1c(NC(=O)c2cc(C(N)=O)nc3cc(F)ccc23)c(C(F)(F)F)nn1Cc1ccc(CC(F)(F)F)cc1 [Example 1714] | –
5 nM | Cc1cc(F)ccc1Cn1nc(C(F)(F)F)c(NC(=O)c2cc(C(N)=O)nc3ccccc23)c1C [Example 1713] | –
4.7 nM | Cc1cc(Cn2nc(C(F)(F)F)c(NC(=O)c3cc(C(N)=O)nc4cc(F)ccc34)c2C)ccc1C#N [Example 1695] | –
4.4 nM | Cc1cc(F)ccc1Cn1nc(C(F)(F)F)c(NC(=O)c2cc(C(N)=O)nc3cccc(F)c23)c1C [Example 1711] | –
3.8 nM | Cc1cc(F)ccc1Cn1nc(C(F)(F)F)c(NC(=O)c2cc(C(N)=O)nc3cc(F)ccc23)c1C [Example 1710] | –
3 nM | Cc1c(NC(=O)c2cc(C(N)=O)nc3cc(F)c(Cl)cc23)c(C(F)(F)F)nn1Cc1ccc(CC(F)(F)F)cc1 [Example 1716] | –
2.5 nM | Cc1c(NC(=O)c2cc(C(N)=O)nc3ccccc23)c(C(F)(F)F)nn1Cc1ccc(CC(F)(F)F)cc1 [Example 1717] | –
1.5 nM | Cc1c(NC(=O)c2cc(C(N)=O)nc3cccc(F)c23)c(C(F)(F)F)nn1Cc1ccc(CC(F)(F)F)cc1 [Example 1715] | –
1.2 nM | Cc1cc(Cn2nc(C(F)(F)F)c(NC(=O)c3cc(C(N)=O)nc4cccc(F)c34)c2C)ccc1C#N [Example 1694] | –
1.2 nM | Cc1cc(Cn2nc(C)c(NC(=O)c3cc(C(N)=O)nc4cc(F)ccc34)c2C)ccc1C#N [Example 1698] | –
0.9 nM | Cc1cc(Cn2nc(C)c(NC(=O)c3cc(C(N)=O)nc4cc(F)c(Cl)cc34)c2C)ccc1C#N [Example 1696] | –
0.5 nM | Cc1cc(Cn2nc(C)c(NC(=O)c3cc(C(N)=O)nc4cccc(F)c34)c2C)ccc1C#N [Example 1697] | –
